Data from patent US4352819A (priority 1980, dated 1982).
Read-outs that look alike come from different tables or passages of the source.

What was measured:
[1] = system: aconitine-induced arrhythmias; assay: Aconitine test (antiarrhythmic); type: in vivo, rat; conditions: for ED50: Rattus norvegicus, read-out: ED50, Aconitine, rat
Description: (§1) These compounds were first selected owing to their activity in different experimental arrhythmia models which are used as screening techniques. So the chloroform, aconitine and calcium chloride tests have been used for testing the compounds of the invention as described by J. W. Lawson, J.Pharmacol.exp.Ther. 160, 22-81 (1968) "Antiarrhythmic activity of some isoquinoline derivatives determined by a rapid screening procedure in the mouse".
It seems that investigators favour the rat so as to study the protective effect of a compound on arrhythmia induced by aconitine (see: J. L. Junien et al., Arzneim.Forsch. 24, 1743-1747 (1974); L. Szekeres et al., Experimental cardiac arrhythmias and antiarrhythmic drugs, Publishing House of the Hungarian Academy of Sciences (Akademia Kiado), Budapest (1971); M. R. Malinow et al., Arch.int.Pharmacodyn. 102, 55-64 (1955); C. Bianchi et al., Arzneim. Forsch. 18, 845-850 (1968); B. B. Vargaftig et al., J. Pharm. Pharmacol. 27, 697-699 (1975); and M. Fekete et al., Med Exp. 10, 93-102 (1964)).
Test compounds are administered to the urethane-anaesthetized rat prior to the injection of aconitine. Various antiarrhythmic drugs are capable of delaying the onset of aconitine-induced arrhythmias and this model of arrhythmia seems to be suitable for assaying the antiarrhythmic acitivity.

[2] = system: ventricular fibrillation induced by chloroform; assay: Chloroform test (antiarrhythmic); type: in vivo; conditions: iv, read-out: ED50, Chloroform, mouse (dose which protects 50% of the mice against ventricular fibrillation induced by chloroform)
Protocol: Five minutes after i.v. injection of the compound under study the mice are placed into a 300 ml beaker containing cotton wool soaked with 20 ml of chloroform. The animals are watched carefully and taken out of the beaker as soon as the second respiratory arrest occured. The heart is then quickly exposed to visual inspection of ventricular rhythm (see Lawson, Loc.cit.).

[3] = system: calcium chloride-induced arrhythmias; assay: Calcium chloride test (antiarrhythmic); type: in vivo, rat; conditions: for ED50: iv, read-out: ED50, Calcium chloride, rat
Description: as §1
Cardiac arrhythmia frequently occurs when the levels of serum ions are abnormal, particularly when the calcium level is four times higher than the normal concentration. This is the reason why intravenous administraction of high doses of calcium chloride can elicit the development of dysrhythmias in animals.
In the anaesthetized rat the rapid intravenous injection of calcium chloride causes lethal ventricular fibrillation or ventricular extrasystoles. The evaluation of the activity of the test compound aministered prior to the calcium chloride injection is based on the onset of arrhythmia (M. R. Malinow et al., Arch.int. Pharmacodyn. 102, 55-64 (1955), "The pharmacology of experimental ventricular arrhythmias in the rat I. Antihistamic drugs") or return to sinus rhythm after occasional trouble of rhythm (M. Fekete et al., Med. Exp. 10, 93-102 (1964), "On the antiarrhythmic effect of some thymoleptics: amitriptyline, imipramine, trimepropimine and desmethylimipramine").

SMILES: CCCCNCC(O)COc1ccsc1C(=O)CCc1ccccc1.OCl (centres unmarked) [LG 80-6-00, 1-[3-(2-hydroxy-3-n-butylaminopropoxy)-2-thienyl]-3-phenyl-1-propanone-chlorohydrate]
- ED50 [1]: 4.23 mg/kg
- ED50 ([2]; Mus musculus): 4.16 mg/kg
- ED50 ([3]; Rattus norvegicus): 5.04 mg/kg

SMILES: CCCNCC(O)COc1c(C)csc1C(=O)CCc1ccccc1.OCl (centres unmarked) [LG 80-6-01, 1-[4-methyl-3-(2-hydroxy-3-n-propylaminopropoxy)-2-thienyl]-3-phenyl-1-propanone-chlorohydrate]
- ED50 [1]: 1.49 mg/kg
- ranking in the aconitine test ([1]; rat, compared by ED50): best compound in this method
- ED50 ([2]; Mus musculus): 3.57 mg/kg
- ED50 ([3]; Rattus norvegicus): 2.59 mg/kg
- protection against arrhythmias induced by calcium chloride ([3]; rat): best protection against arrhythmias induced by calcium chloride

SMILES: CCCNCC(O)COc1cc(C)sc1C(=O)CCc1ccccc1.OCl (centres unmarked) [LG 80-6-02, 1-[5-methyl-3-(2-hydroxy-3-n-propylaminopropoxy)-2-thienyl]-3-phenyl-1-propanone-chlorohydrate]
- ED50 [1]: 22.8 mg/kg
- ED50 ([2]; Mus musculus): 17.6 mg/kg
- ED50 ([3]; Rattus norvegicus): 2.87 mg/kg

SMILES: CCCNCC(O)COc1ccccc1C(=O)CCc1ccccc1 (centres unmarked) [Propafenon, Propafenone, reference compound]
- ED50 [1]: 2.1 mg/kg
- ED50 ([2]; mouse, i.v., 5 minutes before chloroform): 3.45 mg/kg
- ED50 ([3]; anaesthetized rat, compound given prior to i.v. calcium chloride): 4.49 mg/kg
